Experimental findings from article PMC10989073, “Antineoplastic effect of compounds C14 and P8 on TNBC and radioresistant TNBC cells by stabilizing the K-Ras4B^G13D/PDE6δ complex” (Frontiers in Oncology, 2024) are described below.

Molecules are shown by their SMILES. Some results are limits rather than exact numbers.

The subject of one assay is MCF-10A cells. In words: Clonogenic assay. In kind it is cell-based, human. As to conditions: 10 to 12 days, C14 and P8 at IC50-48, cisplatin 100 µM, doxorubicin 0.5 µM. The method, then: The principal aim of a clonogenic assay is to evaluate the effect of chemotherapy agents or new drugs by the measurement of their ability to arrest tumor cell division and their ability to develop new colonies after their exposure to these new drugs ([56]). Therefore, the colony formation ability of the cell lines MCF-10A, MDA-MB-231, and MDA-MB-231RR was evaluated after their exposure to the C14 and P8 compounds. In brief, breast cancer cell lines were cultured in 6-well plates (Corning), seeding 300 cells per well, and incubated at 37°C in 5% CO2 for 24 h. Compounds C14 and P8 were added at the maximum evaluated concentration IC50-48. As controls, cells without treatment and cells treated in the presence of a vehicle (DMSO at 0.66%) were employed (Sigma-Aldrich). […] After 10 days of treatment, cells were fixed with 4% PFA and stained with 0.1% crystal violet in citric acid (Sigma-Aldrich) for 15 minutes. Subsequently, the dye present in the cells was extracted using isopropanol and read at 570 nm in a Synergy-HTX microplate reader (BioTek). Each test was performed in triplicate. Data were expressed as % colonies relative to the untreated control ([56]).

Assay [1] has as its system MDA-MB-231RR xenograft tumors. In words: Orthotopic breast carcinoma xenograft, tumor growth. As to conditions: female Nu/Nu mice, i.p. daily for 15 days, 30 mg/kg (methods: P8 10 mg/kg). In kind it is in vivo, Nu/Nu nude mice. The method, then: Female immune-deficient Nu/Nu nude mice at 6–8 weeks of age ([…], Mexico City, Mexico) were maintained in pathogen-free conditions with irradiated chow. The animals were subcutaneously injected in the left 4th mammary gland with 2 × 10^6 MDA-MB-231RR cells per tumor in 0.1 ml of sterile phosphate-buffered saline. When MDA-MB-231RR cells reached palpable tumors (≥100 mm^3), mice were divided randomly into four groups receiving vehicle (10% DMSO, 0.05% carboxy methyl cellulose, and 0.02% in PBS) (n = 5), C14 at 30 mg/kg (n = 5), P8 at 10 mg/kg (n = 5), or cisplatin at 6 mg/kg (n = 5) intraperitoneally injected daily for 15 days. Body weight and tumor volume were measured every third day. Tumor sizes were calculated using the formula [(length × width2)/2] in mm.

The next assay relates to MDA-MB-231 cells. In words: Cell cycle analysis (propidium iodide, flow cytometry). In kind it is cell-based, human. Particulars: MDA-MB-231, 3 h at IC50-48H; control 10.0%. On the procedure:
(§1) After 3-h incubation, cells were harvested, washed twice in ice-cold PBS, and fixed overnight in 70% ethanol at 4°C. Then, cells were washed in PBS, collected by centrifugation, and stained with staining buffer (PBS with 50 µg/ml propidium iodide and 100 µg/ml RNase A).

The test system of the next assay is MDA-MB-231RR cells. Described as above. In kind it is cell-based, human. Particulars: 3 h at IC50-48H, control 35.6%. On the procedure:
as §1

The subject of assay [2] is AKT and ERK phosphorylation in MCF-10A cells. In words: Western blotting of pAKT and pERK. It counts as cell-based, human. Particulars: IC50-48 for 3 h, EGF 100 ng/ml 10 min, densitometry. On the procedure:
(§2) To determine the effect of the C14 and P8 compounds over the protein effectors of K-Ras4B, AKT, and ERK, immunoblotting assays were conducted with specific antibodies. In brief, MCF-10A, MDA-MB-231, and MDA-MB-231RR cells were plated in 100-mm culture dishes until 80% of confluents. Cell adhesion was allowed for 24 h. […] After pre-treatment, cells were stimulated with 100 ng/ml EGF for 10 minutes to promote AKT and ERK activation. Later, the whole-cell extracts were obtained by the lysis of the cells (Cytoskeleton) in the presence of proteases and phosphatase inhibitors. Subsequently, the protein extracts were incubated at 4°C for 40 minutes to be clarified by centrifugation for 10 minutes at 14,000 rpm, at 4°C. The protein concentration of each extract was determined by using the Precision Red Advanced Protein Assay Reagent (Cytoskeleton) Then, approximately 25 μg of protein extract was electrophoresed in 10% sodium dodecyl sulfate–polyacrylamide gel electrophoresis (SDS-PAGE) and transferred to polyvinylidene fluoride (PVDF) membranes (Millipore, Billerica, MA, USA). Blots were probed using the following primary antibodies: Total ERK (Cell Signaling, Danvers, MA, USA), pERK (Cell Signaling), Total AKT (Cell Signaling), pAKT (Cell Signaling), GSK3β (Cell Signaling), and cyclin D1 (Abcam) at a 1:1,000 dilution. As a control, an anti-GAPDH antibody (GeneTex, Irvine, CA, USA) was employed at a 1:100,000 dilution and γ-Tubulin (Invitrogen) 1:5,000. Densitometric analysis of blots was performed using the software ImageJ version 1.45 (National Institutes of Health, Bethesda, […], USA).

Assay [3] relates to AKT and ERK phosphorylation in MDA-MB-231RR cells. In words: Western blotting of pAKT and pERK. It counts as cell-based, human. Particulars: IC50-48 for 3 h, EGF 100 ng/ml 10 min, densitometry. The method, then:
as §2

The test system of assay [4] is Ras-GTP in MDA-MB-231 cells. In words: Ras activation pull-down assay (Raf-RBD). It counts as cell-based, human. As to conditions: MDA-MB-231, 3 h pre-treatment at IC50-48H, EGF 100 ng/ml 10 min. On the procedure: (§3) Subsequently, the cells were stimulated with epidermal growth factor (EGF) (100 ng/ml) for 10 minutes. Lysates (1 mg/ml) were exposed to Ras GTP-binding protein (Raf-RBD), following the manufacturer’s instructions. Experiments for each cell type and condition were repeated three times.

The subject of assay [5] is Ras-GTP in MDA-MB-231RR cells. In words: Ras activation pull-down assay (Raf-RBD). It counts as cell-based, human. As to conditions: 3 h pre-treatment at IC50-48H, EGF 100 ng/ml 10 min. On the procedure: as §3

As to `O=C(CN1CCN(c2cccc(Cl)c2)CC1)N[C@@H]1CCOc2ccccc21` [P8, 2-[4-(3-chlorophenyl)piperazin-1-yl]-N-[(4R)-chroman-4-yl]acetamide], the “reduction of colony growth” value in the assay on MCF-10A cells stood at 48%. Further, the “reduction in tumor size” value in assay [1] was found to be 41.6%. In addition, the “percentage of cells in G2/M” value with MDA-MB-231 cells was 8.2%. In addition, the “percentage of cells in S phase” value in the assay on MDA-MB-231RR cells is given as 26.4%. Besides, in assay [2], the “reduction in pAKT” value was 25% and the “reduction in pERK” value is 40%. For the same compound, in assay [3], the “reduction in pAKT” value was above 70% and the “reduction in pERK” value is 35%. The “reduction in Ras-GTP levels” value in assay [4] is given as “over 80%”. Besides, the “decrease in Ras-GTP levels” value in assay [5] is given as “over 60%”.

On to `CN(CC(=O)NC1CCOc2ccccc21)Cc1cccc(Cl)c1` (centres unmarked) [C14, 2-[(3-chlorophenyl)-methyl-methyl-amino]-N-croman-4-yl-acetamide], for which the “reduction in tumor size” value in assay [1] worked out at 40.0%. Besides, in the assay with MDA-MB-231 cells, the “percentage of cells in G2/M” value is 6.4%. Further, the “percentage of cells in S phase” value in the assay on MDA-MB-231RR cells came out at 20.7%. In addition, in assay [2], the “reduction in pAKT” value was 25% and the “reduction in pERK” value came out at 40%. Also, in assay [3], the “reduction in pAKT” value is above 70% and the “reduction in pERK” value is listed as “approximately 30%”. Besides, in assay [4], the “reduction in Ras-GTP levels” value is 20%. The “decrease in Ras-GTP levels” value in assay [5] is on record as “approximately 20%”.

As for `N.N.[Cl][Pt][Cl]` [Cisplatin, cisplatin, reference compound], the “reduction of colony growth” value in the assay with MCF-10A cells amounted to 95%.
